Measured values as given in US9205064B2, “Methods for the diagnosis of oncological disorders using epimetabolic shifters, multidimensional intracellular molecules, or environmental influencers” (Berg LLC, priority 2009, dated 2015).

Columns and labels:
SCC cells = assay: Real-time PCR Heat Shock Protein Array; assay type: cell-based
Description: The control cells were untreated cells.
RNA was quantified by measuring Optical Density at 260 nm.
Heat Shock Arrays were run for SCC cells and the data of regulated genes is summarized below in Table 13.

[1] = test system: Pancreatic Cancer Cells (PaCa2); assay: Real-time PCR Angiogenesis Array; assay type: cell-based; conditions: 100 uM Q10, various times
Description: Experiments were carried out essentially as described above.

[2] = rats, oral; cited from earlier work
ATP Citrate Lyase (ACL) = assay: Western blot of ATP citrate lyase levels in normal and cancer cells; assay type: cell-based, human
Description: The whole cell pellets were resuspended one at a time in 1 mL of C7 buffer and transferred to labeled 15 mL tubes. The samples were then sonicated in the cold room on ice using 6 sonic pulses with the setting at #14. The samples were spun for a short time to 2500 g after sonication and the samples transferred to 2 ml tubes. The pH was verified of each sample (pH should be 9.0) using the foam remaining in the […] sample tubes.
After transfer each of the blots was placed in between 2 Whatman Filter papers and dried for 15-20 minutes. After drying the blots were labeled with the date, the type of samples and either blot 1 or blot 2 using a HB pencil. The molecular weight markers were outlined with the pencil and with single lines for the blue and a doublet for the colored markers. The blots were activated with methanol for 5 seconds, washed with water for 5 minutes, and TBST for 15 minutes. The blots were blocked for 1 hour with 5% blocking reagent in TBS-T at room temperature and then washed 3 times with TBS-T (1×-15′; 2×5′ each). Blot 1 was probed with the primary antibody for IDH1 (Cell Signaling #3997) in TBST with 5% BSA (at 1:1000 dilutions) and blot 2 with the rabbit polyclonal antibody for ATP Citrate Lyase in 5% BSA (Cell Signaling #4332) at 1:1000 dilution by incubation overnight at 4 deg C. with shaking. After the overnight incubation with primary antibodies, the blots were washed 3 times with TBS-T (1×-15′; 2×5′ each) and probed with the secondary antibody (antirabbit; 1:10,000 dilution) for 1 h on the orbital tilting shaker at room temperature. After 1 h of incubation with secondary antibodies, the blots were washed 3 times with TBS-T (1×-15′; 2×5′ each) and then incubated with ECF reagent for 5 mins and then each blot scanned with 5100 Fuji Laser scanner at 25 uM resolution, 16 bit, green laser, at 400V and at 500 V.
The samples were processed and run on a 4-12% Bis-Tris Novex NuPAGE gel as described above. The gels were run, transferred and stained essentially as described above.
The Isocitrate dehydrogenase blot was stripped by incubating for 30 minutes with methanol, followed by two 10 minute washes with TBS-T, then 30 minutes of incubation with stripping buffer at 50 deg C., and followed by two washes with 100 ml or more of TBS-T for 30′ each. The blot was scanned in laser scanner to check for complete stripping. The blot was activated with methanol for 5 seconds, washed with water for 5 minutes, and TBST for 15 minutes. The blot was blocked for 1 hour with 5% blocking reagent in TBS-T at room temperature and then washed 3 times with TBS-T (1×-15′; 2×5′ each). This was then probed with the rabbit polyclonal antibody for ATP Citrate Lyase in 5% BSA (Cell Signaling #4332) at 1:1000 dilution overnight at 4 deg C. with shaking. After the overnight incubation with primary antibody for ATP Citrate Lyase, the membrane was washed 3 times with TBS-T (1×-15′; 2×5′ each) and probed with the secondary antibody (antirabbit; 1:10,000 dilution) for 1 h on the orbital tilting shaker at room temperature. After 1 h of incubation with secondary antibodies, the blot was washed 3 times with TBS-T (1×-15′; 2×5′ each) and then incubated with ECF reagent for 5 minutes and then each blot scanned with 5100 Fuji Laser scanner at 25 uM resolution, 16 bit, green laser, at 400V and at 500 V.
In this experiment (western blot experiment 3), and in all of the experiments described below in this Example (i.e., western blot experiments 4 through 9), the cells were additionally treated with either 5 mM glucose (“5G”) or 22 mM glucose (“22G”). The samples derived from the cells were processed and run on a 4-12% Bis-Tris Novex NuPAGE gel as described above. The gels were run, transferred and stained essentially as described above.
The levels of IDH1, ATP citrate lyase and actin levels were determined by probing the blots with primary antibodies for IDH1, ATP citrate lyase and actin, essentially as described above.

SKBr3 = assay: Nexin assay for apoptosis (Annexin-V-PE/7-AAD, flow cytometry); assay type: cell-based, human; conditions: 50 μM or 100 μM Q10, 24 hours
Description: The 7AAD dye will enter into cells with permeabilized cell membranes; primarily those cells that are in late apoptosis. Annexin-V-PE is a dye that binds to Phosphotidyl serine, which is exposed on the outer surface of the plasma membrane in early apoptotic cells. The Nexin reagent thus can be used to differentiate between different populations of apoptotic cells in a flow cytometer.

[3] = test system: HepG2 (liver cancer) cells; assay: Real-time PCR Apoptosis Array; assay type: cell-based
Description: The treatment was initiated on 1×10^5 cells per well, following the procedure utilized in the PaCa2 cells (above, Examples 9-11). However, the total amount of RNA that was extracted from these samples was lower than expected. Reverse transcription is normally done using 1 μg of total RNA (determined by measurement at 260 nm). The maximum volume that can be used per reverse transcription is 8 μl.
However, the array for 48 hours was run choosing FAM as the fluorophore instead of SYBR. Both FAM and SYBR fluoresce at the same wavelength.

COC1=C(OC)C(=O)C(C/C=C(\C)CC/C=C(\C)CC/C=C(\C)CC/C=C(\C)CC/C=C(\C)CC/C=C(\C)CC/C=C(\C)CC/C=C(\C)CC/C=C(\C)CCC=C(C)C)=C(C)C1=O [Q10, Coenzyme Q10]
DNAJB5 mRNA Regulation (SCC cells; 100 μM Q10, 6 hours): Down regulated
DNAJB13 mRNA Regulation (SCC cells; 100 μM Q10, 6 hours): Down regulated
DNAJC4 mRNA Regulation (SCC cells; 100 μM Q10, 6 hours): Down regulated
DNAJC5B mRNA Regulation (SCC cells; 100 μM Q10, 6 hours): Down regulated
DNAJC12 mRNA Regulation (SCC cells; 100 μM Q10, 6 hours): Down regulated
CCT6B mRNA Regulation (SCC cells; 100 μM Q10, 24 hours): Down regulated
mRNA of AKT1, ANGPTL4, ANGPEP, CCL2, CDH4, CXCL1, EDG1, EFNA3, EFNB2, EGF, FGF1, ID3, IL1B, 1L8, KDR, NRP1, PECAM1, PROK2, SERPINF1, SPHK1, STAB1, TGFB1, VEGFA and VEGFB [1]: modulated
fraction of orally-administered CoQ10 absorbed [2]: 2-3%
ATP Citrate Lysase ~kd band Normalized Intensity (HASMC vs. HepG2) (ATP Citrate Lyase (ACL); HASMC, 5g48-50): 23341
ATP Citrate Lysase ~kd band Normalized Intensity (HASMC vs. PACA2) (ATP Citrate Lyase (ACL); HASMC, 5g48-50): 12056
ATP Citrate Lysase ~kd band Normalized Intensity (HASMC vs. HepG2) (ATP Citrate Lyase (ACL); HASMC, 5g48-100): 25544
ATP Citrate Lysase ~kd band Normalized Intensity (HASMC vs. PACA2) (ATP Citrate Lyase (ACL); HASMC, 5g48-100): 15265
ATP Citrate Lysase ~kd band Normalized Intensity (HASMC vs. HepG2) (ATP Citrate Lyase (ACL); HASMC, 22G48-50): 21439
ATP Citrate Lysase ~kd band Normalized Intensity (HASMC vs. PACA2) (ATP Citrate Lyase (ACL); HASMC, 22G48-50): 15857
ATP Citrate Lysase ~kd band Normalized Intensity (HASMC vs. HepG2) (ATP Citrate Lyase (ACL); HASMC, 22G48-100): 19491
ATP Citrate Lysase ~kd band Normalized Intensity (HASMC vs. PACA2) (ATP Citrate Lyase (ACL); HASMC, 22G48-100): 13892
ATP Citrate Lysase ~kd band Normalized Intensity (HASMC vs. HepG2) (ATP Citrate Lyase (ACL); HepG2, 5g48-50): 24106
ATP Citrate Lysase ~kd band Normalized Intensity (HASMC vs. HepG2) (ATP Citrate Lyase (ACL); HepG2, 5g48-100): 22463
ATP Citrate Lysase ~kd band Normalized Intensity (HASMC vs. HepG2) (ATP Citrate Lyase (ACL); HepG2, 22G48-50): 31235
ATP Citrate Lysase ~kd band Normalized Intensity (HASMC vs. HepG2) (ATP Citrate Lyase (ACL); HepG2, 22G48-100): 50588
ATP Citrate Lysase ~kd band Normalized Intensity (HASMC vs. PACA2) (ATP Citrate Lyase (ACL); PACA2, 5g48-50): 8027
ATP Citrate Lysase ~kd band Normalized Intensity (HASMC vs. PACA2) (ATP Citrate Lyase (ACL); PACA2, 5g48-100): 4942
ATP Citrate Lysase ~kd band Normalized Intensity (HASMC vs. PACA2) (ATP Citrate Lyase (ACL); PACA2, 22G48-50): 9537
ATP Citrate Lysase ~kd band Normalized Intensity (HASMC vs. PACA2) (ATP Citrate Lyase (ACL); PACA2, 22G48-100): 14901
early and late apoptosis (SKBr3): did not show any significant increases
genes regulated in the Apoptosis Arrays ([3]; 100 μM Q10, gene BAG1): BAG1
genes regulated in the Apoptosis Arrays ([3]; 100 μM Q10, gene CASP9): CASP9
genes regulated in the Apoptosis Arrays ([3]; 100 μM Q10, gene TNFRSF1A): TNFRSF1A
